Results on eight molecules are retold here after patent publication US7262212B2, “2,3-dihydro-6-nitroimidazo[2,1-b]oxazoles” (Otsuka Pharmaceutical Co., Ltd., priority 2002, dated 2007).

One data set deals with M. intracellulare. The note with it: used at 250 μg/ml or less; cited from earlier work.
A further data set has as its system M. fortuitum. To be noted: used at 250 μg/ml or less; cited from earlier work.
For data set [1], the system named is Mycobacterium tuberculosis (H37Rv strain). The note with it: cited from earlier work.
In another data set the test system is M. avium. The note with it: used at 250 μg/ml or less; cited from earlier work.
Data set [2] has as its system Mycobacterium tuberculosis (M. tuberculosis H37Rv). As to the kind of experiment: Antimicrobial assay (agar dilution method), minimal inhibitory concentration. It is filed as cell-based. To be noted: 336 h, 7H11 agar medium, approximately 10^6 CFU/ml, 5 μl inoculated, 37° C. for 14 days. Background: Agar dilution tests growth on a series of plates holding different concentrations.

Usually MIC stands for the smallest concentration in the dilution series that meets the test's criterion for growth inhibition. By melting point is commonly meant the temperature of the solid-liquid transition.

Values after ≈ are worked out from the molar mass of the structure shown.

For the molecule `CCC1Cn2cc([N+](=O)[O-])nc2O1` (centres unmarked) [CGI-17341], the activity entry in the data set on M. intracellulare, in the data set on M. fortuitum and in the data set with M. avium was “does not have the activity” in each case. In addition, the bactericidal action entry in data set [1] is “has a bactericidal action”. In data set [2], `C[C@]1(CN2CCN(c3ccc(OC(F)(F)F)cc3)CC2)Cn2cc([N+](=O)[O-])nc2O1` [Example 397, (S)-2-[4-(4-trifluoromethoxyphenyl)-piperazin-1-ylmethyl]-2-methyl-6-nitro-2,3-dihydroimidazo[2,1-b]oxazole] yielded an MIC of 0.024 µg/mL (≈ 0.0562 µM). `CC1(CN2CCN(Cc3ccc(F)cc3)C2=O)Cn2cc([N+](=O)[O-])nc2O1` (centres unmarked) gave a melting point of 182.5 to 183.3 °C. On the same count and under the same terms, as for `C[C@]1(CN2CCN(C(=O)CCCCc3ccc(Cl)cc3)CC2)Cn2cc([N+](=O)[O-])nc2O1`, the figure is 108 to 111 °C. Still for that read-out and setting: next, `CN(C(=O)OC(C)(C)C)C1CCN(CC2(C)Cn3cc([N+](=O)[O-])nc3O2)CC1` (centres unmarked): 198.8 to 201.1 °C; `C[C@]1(COc2ccc(-n3ccnc3)cc2)Cn2cc([N+](=O)[O-])nc2O1`: 172 to 175 °C; `CC1(CCn2nc(-c3cnccn3)oc2=O)Cn2cc([N+](=O)[O-])nc2O1` (centres unmarked): 209 to 212 °C.

`C[C@]1(COC(=O)N2CCCc3cc(Cl)ccc32)Cn2cc([N+](=O)[O-])nc2O1` came in with a melting point of 172 to 174 °C.
